One data set concerns Spodoptera litura. Kind of data set: Efficacy test against Spodoptera litura (cabbage leaf dip). In kind it is in vivo. As to conditions: foliar, 144 h, cabbage leaves soaked 30 seconds, second-instar larvae, 6 days after larvae release, read-out: mortality rate against Spodoptera litura. As to the method:
(§1) Five parts of the compound of the present invention, 93.6 parts of dimethylformamide and 1.4 parts of a polyoxyethylene alkyl aryl ether were mixed together and dissolved to obtain an emulsion (1) containing 5% of the active constituent.
(§2) The mortality rate was calculated using the following equation. Mortality rate (%)=(number of dead pests/number of test pests)×100
The emulsion (1) was diluted with water to achieve a concentration of the compound of the present invention of 125 ppm. Cabbage leaves were soaked in the diluted liquid for 30 seconds. These cabbage leaves were then placed in a Petri dish, and five second-instar larvae of Spodoptera litura were released into the dish. The Petri dish was placed in a temperature-controlled room at a temperature of 25° C. and a humidity of 60%. Mortality was investigated 6 days after larvae release, and the mortality rate was calculated. The test was repeated.

The next data set has as its system Aedes aegypti. Kind of data set: Contact/ingestion efficacy test against Aedes aegypti larvae. In kind it is in vivo. To be noted: final concentration 12.5 μM, first-instar larvae, after 48 hours, 28° C., 80% RH, read-out: mortality rate against Aedes aegypti. As to the method: A DMSO solution of the compound of the present invention was diluted with water to obtain a 125 μM dilute solution. Ten first-instar larvae of Aedes aegypti were placed in each well of a 96-well microtiter plate, the above dilute liquid was added in a ratio of 1/10, and a test was conducted at a final concentration of 12.5 μM. The samples were incubated in a temperature-controlled room (28° C., 80% RH), and after 48 hours of treatment with the compound, the mortality of the larvae was investigated. The test was repeated.

For data set [1], the system named is Meloidogyne incognita. In words: Efficacy test against Meloidogyne incognita (in vitro test). To be noted: 48 h, final concentration 50 ppm, second-instar larvae (L2), 2 days at 15° C., read-out: nematode mortality (still) rate against Meloidogyne incognita. As for the experimental part:
Two hundred μL of a suspension containing about 50 second-instar larvae (L2) of Meloidogyne incognita was dispensed into each well of a 96-well microplate, and 0.2 μL of a 10,000 ppm dimethylsulfoxide solution of the compound of the present invention was injected into each well to achieve a final concentration of 50 ppm. Mortality was investigated after 2 days treatment at 15° C., and the nematode mortality rate was calculated. […] The test was repeated.

For the next data set, the system named is Caenorhabditis elegans. In words: Efficacy test against Caenorhabditis elegans (in vitro test). As to conditions: 48 h, final concentration 50 ppm, mixed instars, 2 days at 25° C., read-out: nematode mortality rate against Caenorhabditis elegans. As for the experimental part: Two hundred μL of a suspension containing about 50 mixed instars of Caenorhabditis elegans was dispensed into each well of a 96-well microplate, and 0.2 μL of a 10,000 ppm dimethylsulfoxide solution of the compound of the present invention was injected into each well to achieve a final concentration of 50 ppm. Mortality was investigated after 2 days treatment at 25° C., and the nematode mortality rate was calculated. […] The test was repeated.

In a further data set the test system is Dirofilaria immitis. In words: Efficacy test against Dirofilaria immitis (in vitro, Mf and L4). To be noted: 10 μM, 72 hours, 37° C. The source says: Using the microfilarial stage and the fourth stage larvae (Mf and L4 respectively) of Dirofilaria immitis, the bioactivity of compounds of the present invention were investigated in vitro. The Mf was collected from the blood of infected dogs, and 500 microfilariae were inoculated into each well of a 96-well microtiter plate. The L4 larvae was obtained by allowing L3 larvae collected from infected mosquitoes to undergo a single molt, and 10 of these L4 larvae were inoculated into each well. Subsequently, a 10 mM DMSO solution of the compound of the present invention was prepared at various concentrations and added to each well in a ratio of 1/1,000, and a test was then conducted at a final concentration of 10 μM. Incubation was performed at 37° C. in an environment containing 5% carbon dioxide, and 72 hours after treatment with the compound, the mortality and growth inhibition were determined. The test was repeated.

A further data set deals with Mythimna separata. Kind of data set: Efficacy test against Mythimna separata (treated artificial feed). To be noted: in vivo. As for the experimental part: as §1, §2
First, 0.8 g of an artificial feed (Insecta LFS, manufactured by Nosan Corporation) and 1 μl of the emulsion (I) were mixed thoroughly, and 0.2 g of the resulting mixture was placed in each of the treatment areas of a plastic test container (volume: 1.4 ml) to complete preparation of a test feed.
Two second-instar larvae of Mythimna separata were inoculated into each treatment area, and the test container was sealed with a plastic lid. The sealed container was placed in a temperature-controlled room at 25° C., and the mortality rate and the amount of feed consumed were determined on the fifth day. The test was repeated. Further, a test performed under the same conditions, but with the exception of excluding the compound of the present invention from the emulsion (1), was used as a control.

Data set [2] has as its system Meloidogyne incognita. Kind of data set: Efficacy test against Meloidogyne incognita (clubroot formation suppression test on cucumber). In kind it is in vivo. To be noted: 125 ppm, 1 ml irrigated on culture medium with cucumber seeds; 200 eggs; after 14 days; relative to untreated sample. As for the experimental part:
as §1
The emulsion (I) was diluted with water to achieve a concentration of the compound of the present invention of 125 ppm. A plastic container with a diameter of 5 cm was filled with 7 g of a culture medium, and cucumber seeds were planted. The culture medium was irrigated with 1 ml of the above dilute liquid, and then inoculated with 200 eggs of Meloidogyne incognita. The container was then placed in a temperature-controlled room at a temperature of 25° C. and a humidity of 60%, and after 14 days, the clubroot formation suppression ratio (%) relative to an untreated sample was calculated from the number of clubroots formed on the roots of the cucumber plants. The test was repeated. Clubroot formation suppression ratio (%)=(1−Nt/Nc)×100
Nt: Total number of club roots formed in two treated samples after 14 days
Nc: Total number of club roots formed in two untreated samples after 14 days

Some results are limits rather than exact numbers.

For orientation: mortality means the share of the test organisms that died. Turning to `O=C(Nc1ccc(C(F)(F)F)cc1)c1ccc(C(F)(F)F)cc1NS(=O)(=O)C(F)(F)F` [a-9, 4-(trifluoromethyl)-N-[4-(trifluoromethyl)phenyl]-2-(trifluoromethylsulfonylamino)benzamide], the mortality at 125 ppm in the data set on Spodoptera litura is ≥ 80%. For the same compound, the mortality at 12.5 µM with Aedes aegypti was ≥ 80%. For the same compound, the mortality at 50 ppm with Meloidogyne incognita [1] and with Caenorhabditis elegans was ≥ 80% in each case.
Take `O=C(Nc1ccc(C(F)(F)F)cc1)c1ccc(OC(F)(F)F)cc1NS(=O)(=O)C(F)(F)F` [a-26]: the “mortality rate or growth inhibition rate” value with Dirofilaria immitis (fourth stage larvae (L4)) and with Dirofilaria immitis (microfilarial stage (Mf)) was “at least 90%” in each case. Also, in the data set on Mythimna separata, the “mortality rate against Mythimna separata, or amount of feed consumed relative to control” value is recorded as 100%, or the amount of feed consumed was 10% or less.
For the compound `COC(=O)c1cc(Cl)c(Cl)cc1NC(=O)c1ccc(C(F)(F)F)cc1NS(=O)(=O)C(F)(F)F` [a-80], in the data set on Meloidogyne incognita [2], the “clubroot formation suppression ratio against Meloidogyne incognita” value is on record as ≥ 80%. Also, in the data set with Mythimna separata, the “mortality rate against Mythimna separata, or amount of feed consumed relative to control” value is 100%, or the amount of feed consumed was 10% or less.
In the case of `O=C(Nc1ccc(F)c(C(F)(F)F)c1)c1ccc(-c2ccc(C(F)(F)F)nc2)cc1NS(=O)(=O)C(F)(F)F` [a-120], the “mortality rate against Mythimna separata, or amount of feed consumed relative to control” value in the data set on Mythimna separata was 100%, or the amount of feed consumed was 10% or less.
Still for that read-out and setting: the same measure for `O=C(Nc1ccc([N+](=O)[O-])cc1)c1ccc(-c2ccc(C(F)(F)F)nc2)cc1NS(=O)(=O)C(F)(F)F` [a-121]: 100%, or the amount of feed consumed was 10% or less; for `O=C(Nc1ccc(C(F)(F)F)cc1)c1cc(C(F)(F)F)c(F)cc1NS(=O)(=O)C(F)(F)F` [a-122]: 100%, or the amount of feed consumed was 10% or less.
The same measure, in the same setting: for `O=C(Nc1ccc(C(F)(F)F)cc1)c1cc(F)c(C(F)(F)F)cc1NS(=O)(=O)C(F)(F)F` [a-123] the value was 100%, or the amount of feed consumed was 10% or less.
As for `O=C(Nc1ccc(C(F)(F)F)cc1)c1cc(Br)c(Cl)cc1NS(=O)(=O)C(F)(F)F` [a-124], the “mortality rate against Mythimna separata, or amount of feed consumed relative to control” value in the data set on Mythimna separata is on record as 100%, or the amount of feed consumed was 10% or less.
`COC(=O)c1c(NC(=O)c2ccc(C(F)(F)F)cc2NS(=O)(=O)C(F)(F)F)ccc(Br)c1F` [a-126]: in the data set on Mythimna separata, the “mortality rate against Mythimna separata, or amount of feed consumed relative to control” value is listed as 100%, or the amount of feed consumed was 10% or less.
Still for that read-out and setting: for `O=C(Nc1ccc(C(F)(F)F)cc1)c1cc(F)c(F)cc1NS(=O)(=O)C(F)(F)F` [a-127] the value was 100%, or the amount of feed consumed was 10% or less.
With `O=C(Nc1ccc(C(F)(F)F)cc1)c1cc(Cl)c(Cl)cc1NS(=O)(=O)C(F)(F)F` [a-128], the “mortality rate against Mythimna separata, or amount of feed consumed relative to control” value in the data set with Mythimna separata was 100%, or the amount of feed consumed was 10% or less.
The same measure, in the same setting: for `O=C(Nc1ccc(C(F)(F)F)cc1)c1cc(Cl)c(F)cc1NS(=O)(=O)C(F)(F)F` [a-129] the value was 100%, or the amount of feed consumed was 10% or less.
Same read-out and setting: the same measure for `COC(=O)c1ccc(C(F)(F)F)cc1NC(=O)c1cc(Br)c(Cl)cc1NS(=O)(=O)C(F)(F)F` [a-131]: 100%, or the amount of feed consumed was 10% or less; for `COC(=O)c1cc(F)c(F)cc1NC(=O)c1cc(Cl)c(Br)cc1NS(=O)(=O)C(F)(F)F` [a-132]: 100%, or the amount of feed consumed was 10% or less.
On the same count and under the same terms, for `CC(=O)c1ccc(C(F)(F)F)cc1NC(=O)c1ccc(C(F)(F)F)cc1NS(=O)(=O)C(F)(F)F` [a-134] the value was 100%, or the amount of feed consumed was 10% or less; for `O=C(Nc1ccc(C(F)(F)F)cc1-n1cccn1)c1ccc(C(F)(F)F)cc1NS(=O)(=O)C(F)(F)F` [a-135], 100%, or the amount of feed consumed was 10% or less.
With `COC(=O)c1ccc(C(F)(F)F)cc1NC(=O)c1cc(Cl)c(F)cc1NS(=O)(=O)C(F)(F)F` [a-137], in the data set with Mythimna separata, the “mortality rate against Mythimna separata, or amount of feed consumed relative to control” value is 100%, or the amount of feed consumed was 10% or less.
Take `O=C(Nc1ccc(F)c(F)c1)c1ccc(C(F)(F)F)cc1NS(=O)(=O)C(F)(F)F` [a-138]: in the data set with Mythimna separata, the “mortality rate against Mythimna separata, or amount of feed consumed relative to control” value is reported as 100%, or the amount of feed consumed was 10% or less.
Consider `O=C(Nc1cc(C(F)(F)F)ccc1-c1nnco1)c1ccc(C(F)(F)F)cc1NS(=O)(=O)C(F)(F)F` [a-139], for which the “mortality rate against Mythimna separata, or amount of feed consumed relative to control” value with Mythimna separata is reported as 100%, or the amount of feed consumed was 10% or less.
Consider `O=C(Nc1ccc(F)c(C(F)(F)F)c1)c1ccc(Cl)cc1NS(=O)(=O)C(F)(F)C(F)(F)C(F)(F)C(F)(F)F` [a-141], for which the “mortality rate against Mythimna separata, or amount of feed consumed relative to control” value in the data set with Mythimna separata is on record as 100%, or the amount of feed consumed was 10% or less.
Still for that read-out and setting: for `O=C(Nc1ccc(F)c(F)c1)c1cc(Br)c(Cl)cc1NS(=O)(=O)C(F)(F)F` [a-143] the value was 100%, or the amount of feed consumed was 10% or less; for `O=C(NCc1ccc(Cl)cc1)c1ccc(C(F)(F)F)cc1NS(=O)(=O)C(F)(F)F` [b-1], 100%, or the amount of feed consumed was 10% or less.
Same read-out and setting: for `CC(C)(NC(=O)c1ccc(C(F)(F)F)cc1NS(=O)(=O)C(F)(F)F)c1ccc(Cl)cc1` [b-2] the value was 100%, or the amount of feed consumed was 10% or less; for `CC(NC(=O)c1ccc(C(F)(F)F)cc1NS(=O)(=O)C(F)(F)F)c1ncc(C(F)(F)F)cc1Cl` (stereo not shown) [b-4], 100%, or the amount of feed consumed was 10% or less.
On the same count and under the same terms, the same measure for `CCC(NC(=O)c1ccc(C(F)(F)F)cc1NS(=O)(=O)C(F)(F)F)c1ccc(C(F)(F)F)cn1` (stereo not shown) [b-6]: 100%, or the amount of feed consumed was 10% or less.

For the origin of these results see US10793520B2, “Sulfonylaminobenzamide compound and pest control agent” (Nippon Soda Co., Ltd., priority 2016, dated 2020).
